According to PMC8151276, “An Integrated Approach toward NanoBRET Tracers for Analysis of GPCR Ligand Engagement” (Molecules, 2021):

Key:
Format in all cases: binding
RXFP4 = target: T1, RXFP4 (Homo sapiens, UniProt Q8TDU9); assay: NanoBRET screen HiBiT-RXFP4 in HEK293
T1 construct: purchased Promega (in-house HiBiT-GPCR construct library, NanoBRET)
Experimental: (§1) Each tracer candidate was screened across the entire library of HiBiT-GPCR constructs using NanoBRET as the detection modality. As depicted in Figure 4A, the specificity of interactions was evaluated through decrease in BRET due to competitive displacement of a bound tracer by excess parental compound. Each tracer was analyzed for binding to each HiBiT-GPCR fusion in the absence and in the presence of competing parental compound. Briefly, HEK293 cells were transfected with HiBiT-GPCR constructs diluted into promoterless DNA to reduce expression and maximize translocation to the cell surface. Each tracer candidate was then screened at concentrations of 1 μM and 0.1 μM across cells expressing these fusions. Cells were treated for 1.5 h with tracer either alone or in the presence of 20 μM competing parental compound (i.e., control). BRET was measured upon addition of purified LgBiT and subsequent complementation with HiBiT genetically fused to a GPCR. The specificity of interactions was assessed through a decrease in BRET signal due to competitive displacement of the bound tracer. To further gauge the robustness of these interactions, the fold response over the control (i.e., BRETtracer/BRETcontrol) was calculated. We chose a 1.5-fold response, which translates to ≥7-fold signal over noise as the minimal threshold required to score an interaction as positive. […]. Below we highlight the screening results obtained for our exemplary fluorescent tracers based on Clozapine, Amitriptyline and AZD1283.
(§2) HiBiT-GPCR DNA constructs were diluted in 10 mM Tris pH 8 to a final concentration of 0.01 μg/μL, arrayed in 96-well plates and stored at −20 °C. For transfection, HEK293 cells were suspended in Opti-MEM (without phenol red) supplemented with 2% fetal bovine serum (Seradigm) and 100 units/mL penicillin–streptomycin (Gibco) at a final concentration of 220,000 cells/mL and dispensed into white 96-well plates at 90 μL/well. Subsequent transfections and screens were carried using an Agilent Bravo Automated Liquid Handling Platform. First, the 96-well HiBiT DNA arrays were diluted 25-fold in Opti-MEM (without serum or phenol red) to a final concentration of 0.0004 μg/μL and 20 μL of the diluted DNAs were transferred into new 96-well plates. Next, promoterless carrier DNA (1 μg/μL) was diluted 25-fold (0.04 μg/μL) and then dispensed into the diluted arrays at 20 μL/well. Following brief mixing, Viafect transfection reagent (Promega) diluted 16-fold into Opti-MEM was dispensed into the plates at 40 μL/well. After mixing by pipetting, plates were incubated for 10 min on the pipetting station deck. The DNA-transfection reagent complexes were then added to plates containing cells. To facilitate the screen, 10 μL of DNA-transfection reagent complexes were added in duplicates to the top 4 and bottom 4 rows, resulting in two identical 48-well arrays per plate. Plates with transfected cells were incubated for 18–20 h at 37 °C/5% CO2. A screen of each tracer across the entire library using two different concentrations requires duplicate plates of transfected cells. Depending on the number of tracers being screened, transfections can be scaled up using the same ratios. The next day, for each tracer, four 20× screening solutions in tracer dilution buffer (Promega) were prepared: two duplicates at final concentration of 20 μM and two duplicates at a final concentration of 2 μM. A competing unmodified compound was added to one of each duplicate at a final concentration of 400 μM. The four resulting solutions were diluted 4-fold in Opti-MEM without serum or phenol red to generate 5× solutions (5 µM and 0.5 µM tracer +/− 100 μM competing compound). To screen the library, a BioTek MultiFlo FX liquid dispenser was used to dispense 22.5 µL of tracer solution to the top 4 rows and 22.5 µL tracer + competing compound solution to the 4 bottom rows. Plates were briefly mixed on an orbital shaker and incubated for 1.5 h at room temperature. […]

CNR1 = target: T2, CNR1 (Homo sapiens, UniProt P21554); assay: NanoBRET screen HiBiT-CNR1 in HEK293; settings: CNR1
T2 construct: purchased Promega (in-house HiBiT-GPCR construct library, NanoBRET)
Experimental: as §1, §2

OPRL1 = target: T3, OPRL1 (Homo sapiens, UniProt P41146); assay: NanoBRET screen HiBiT-OPRL1 in HEK293
T3 construct: purchased Promega (in-house HiBiT-GPCR construct library, NanoBRET)
Experimental: as §1, §2

[1] = tracer at 0.1μM, listed as amitriptyline-b-2-NB590
[2] = tracer at 1μM, listed as amitriptyline-b-2-NB590

T3 sequence (P41146 whole entry): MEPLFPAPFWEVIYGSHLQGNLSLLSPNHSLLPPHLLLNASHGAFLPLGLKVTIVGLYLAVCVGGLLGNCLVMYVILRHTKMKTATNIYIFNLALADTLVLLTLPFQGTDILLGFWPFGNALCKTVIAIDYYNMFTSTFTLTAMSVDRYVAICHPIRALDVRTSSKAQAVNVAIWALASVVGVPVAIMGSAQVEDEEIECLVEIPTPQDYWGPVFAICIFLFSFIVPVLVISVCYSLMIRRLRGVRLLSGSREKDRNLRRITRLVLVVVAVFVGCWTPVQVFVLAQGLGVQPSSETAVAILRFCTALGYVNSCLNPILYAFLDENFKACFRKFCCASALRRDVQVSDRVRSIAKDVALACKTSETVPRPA
T1 sequence (Q8TDU9 whole entry): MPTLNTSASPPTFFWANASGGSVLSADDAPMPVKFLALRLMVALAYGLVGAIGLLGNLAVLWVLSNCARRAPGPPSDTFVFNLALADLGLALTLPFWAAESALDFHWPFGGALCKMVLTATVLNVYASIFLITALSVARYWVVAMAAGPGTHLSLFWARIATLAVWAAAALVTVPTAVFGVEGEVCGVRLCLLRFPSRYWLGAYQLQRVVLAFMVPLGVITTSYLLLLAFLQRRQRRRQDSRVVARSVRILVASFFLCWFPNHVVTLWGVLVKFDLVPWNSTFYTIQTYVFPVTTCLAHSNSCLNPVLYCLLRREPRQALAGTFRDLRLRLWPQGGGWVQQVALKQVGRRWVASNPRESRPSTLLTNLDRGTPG
T2 sequence (P21554 whole entry): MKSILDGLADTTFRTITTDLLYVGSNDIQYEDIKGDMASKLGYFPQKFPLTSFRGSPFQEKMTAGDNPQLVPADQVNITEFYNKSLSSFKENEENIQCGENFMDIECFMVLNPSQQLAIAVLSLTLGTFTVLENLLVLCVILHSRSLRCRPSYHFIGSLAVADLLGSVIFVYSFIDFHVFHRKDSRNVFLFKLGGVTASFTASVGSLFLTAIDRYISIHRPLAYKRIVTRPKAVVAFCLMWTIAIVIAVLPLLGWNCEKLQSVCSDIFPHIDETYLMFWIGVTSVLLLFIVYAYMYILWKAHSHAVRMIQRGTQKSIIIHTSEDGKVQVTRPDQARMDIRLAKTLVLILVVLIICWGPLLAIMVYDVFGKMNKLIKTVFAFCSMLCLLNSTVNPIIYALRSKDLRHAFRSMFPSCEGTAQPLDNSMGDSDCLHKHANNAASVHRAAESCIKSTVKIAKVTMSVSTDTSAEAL

Structure (SMILES) | NanoBRET Fold Response (RXFP4; RXFP4, tracer 0.1μM) | NanoBRET Fold Response (RXFP4; RXFP4, tracer 1μM) | NanoBRET Fold Response (CNR1; tracer 0.1μM) | NanoBRET Fold Response (CNR1; tracer 1μM) | NanoBRET Fold Response (OPRL1; OPRL1, tracer 0.1μM) | NanoBRET Fold Response (OPRL1; OPRL1, tracer 1μM) | other results
N#CN=C(NCCCOc1cccc(CN2CCCCC2)c1)NCCNC(=O)CCOCCOCCOCCOCCNC(=O)CCc1ccc2n1[B-](F)(F)[N+]1=C(c3ccc[nH]3)C=CC1=C2 [Aminopotentidine-2-NB590] | 1.02 | 1.02 | 0.98 | 1.00 | 1.05 | 1.01 | 
CN(C)CCC=C1c2ccccc2CCc2ccc(C(=O)NCCNC(=O)CCOCCOCCOCCOCCNC(=O)CCc3ccc4n3[B-](F)(F)[N+]3=C(c5ccc[nH]5)C=CC3=C4)cc21 [Amitriptyline-b-2-NB590] |  |  | 1.03 | 1.04 |  |  | NanoBRET Fold Response (RXFP4; [1]): 1.07; NanoBRET Fold Response (RXFP4; [2]): 0.89; NanoBRET Fold Response (OPRL1; [1]): 1.14; NanoBRET Fold Response (OPRL1; [2]): 1.14
COc1ccccc1N1CCN(CCCCN2C(=O)c3ccc(CNC(=O)CCOCCOCCOCCOCCNC(=O)CCc4ccc5n4[B-](F)(F)[N+]4=C(c6ccc[nH]6)C=CC4=C5)cc3C2=O)CC1 [NAN-190-2-NB590] |  | 0.97 | 1.02 |  | 0.97 |  | 
O=C(CCOCCOCCOCCOCCNC(=O)CCc1ccc2n1[B-](F)(F)[N+]1=C(c3ccc[nH]3)C=CC1=C2)NCCCN1CCN(C2=Nc3ccccc3Oc3ccc(Cl)cc32)CC1 [Loxapine-a-2-NB590] | 1.01 | 1.21 | 0.72 | 0.29 | 1.00 | 0.89 | 
CCCn1c(=O)c2[nH]c(-c3ccc(OCC(=O)NCCNC(=O)CCOCCNC(=O)c4ccc(CNC(=O)CCc5ccc6n5[B-](F)(F)[N+]5=C(c7ccc[nH]7)C=CC5=C6)cc4)cc3)nc2n(CCC)c1=O [XAC-3-NB590] | 1.00 | 0.96 | 1.01 | 1.00 | 1.12 | 0.72 | 
CCOC(=O)c1cc(C#N)c(N2CCC(C(=O)NS(=O)(=O)Cc3ccccc3/C=C/C(=O)NCCNC(=O)CCc3ccc4n3[B-](F)(F)[N+]3=C(c5ccc[nH]5)C=CC3=C4)CC2)nc1C [AZD1283-1-NB590] |  |  |  |  |  |  | NanoBRET Fold Response (RXFP4; RXFP4, 0.1μM): 1.02; NanoBRET Fold Response (RXFP4; RXFP4, 1μM): 1.09; NanoBRET Fold Response (CNR1; 0.1μM): 0.97; NanoBRET Fold Response (CNR1; 1μM): 0.51; NanoBRET Fold Response (OPRL1; OPRL1, 0.1μM): 0.98; NanoBRET Fold Response (OPRL1; OPRL1, 1μM): 1.15
